Here are results for six compounds from patent US20140193341A1, “HUMAN INDUCED NEURONAL CELLS” (priority 2011, published 2014).

Entries after “also recorded” stand apart in the source; their conditions may differ.

What all share (assay type): cell-based, human
The subject of assay [1] is AMPA and NMDA glutamatergic receptors. The experiment in a line: Glutamate puff evoked postsynaptic currents in hiN cells. As to conditions: glutamate 1 mM puff, NBQX 20 μM and APV 50 μM applied together.
The test system of assay [2] is hiN cells integrated into host brain. The experiment in a line: Voltage-clamp recording of transplanted hiN cells in acutely prepared mouse brain slices. Particulars: for spontaneous excitatory postsynaptic currents (sEPSCs) under glutamatergic block: NBQX 20 μM and APV 50 μM.
The test system of another assay is glutamatergic receptor. The experiment in a line: Spontaneous postsynaptic currents of hiN cells in murine glial coculture. As to conditions: hiN cells held at −70 mV, murine glial monolayer coculture; NBQX/APV bath application.
Another assay has as its system γ-secretase. The experiment in a line: Aβ ELISA of media from hiN cultures treated with γ-secretase inhibitor. As to conditions: DAPT 10 μM; hiN cell cultures. As to the method:
APP ELISA was performed using a human APP ELISA kit (Invitrogen, Camarillo, Calif.), according to the manufacturer's instruction. Absorbance was read on a VersaMax ELISA Microplate Reader (Molecular Devices, Inc. Sunnyvale, Calif.) at 450 nm. The amount of APP was normalized to the total cell protein (determined with the DC Protein Assay Reagent kit; Bio-Rad, Hercules, Calif.). sAPPIβ and Aβ ELISA were performed on supernatant media from hiN cell cultures at 21 days after viral transduction. […] was performed using BetaMarkTM sAPP Beta ELISA kit (Covance, Princeton, N.J.), according to the manufacturer's instruction. The chemiluminescence was read on a microplate luminometer ([…] Plus, TECAN, Männedorf Switzerland). Aβ quantification was performed by ELISA as described previously (Cirrito et al., 2003). Media was conditioned for 48 hr prior to harvesting. Samples were analyzed for Aβ40 or Aβ42 using specific sandwich ELISAs. Briefly, Aβ40, and Aβ42 were captured using monoclonal antibodies targeted against amino acids 35-40 (HJ2.0), or 33-42 (HJ7.4) of Aβ, respectively. The antibodies HJ2.0, HJ5.1 and HJ7.4 were gifts from David M. Holtzman. […] All assays were developed using Super Slow ELISA TMB (Sigma) and read on a VersaMax ELISA Microplate Reader (Molecular Devices, Inc. Sunnyvale, Calif.) at 650 nm. […]
A general note: ELISA stands for enzyme-linked immunosorbent assay.

Assay [3] deals with APP-positive puncta in hiN cells. The experiment in a line: APP immunostaining of hiN cells, APP-positive puncta area per cell. Particulars: DAPT 10 μM, 18 hr. The procedure: Cells were fixed in 4% paraformaldehyde for 10 min at room temperature, followed by rinsing 3 times with phosphate-buffered saline (PBS). Cells were then permeabilized with 0.1% Triton X-100 in 1×PBS for 10 min at room temperature. After again rinsing 3 times with PBS, cells were incubated with blocking buffer containing 10% goat serum and 10 mg/ml BSA at room temperature for 1 hr. All primary antibodies were diluted in PBS. Cells were incubated with primary antibodies as listed at 4° C. for 12-16 hr, followed by the corresponding secondary antibody solutions in 37° C. for 1 hr. Cells were rinsed with 1×PBS three times followed by mounting of coverslips with anti-fade solution (Invitrogen). […]
Imaging was performed by laser-scanning confocal microscopy with a 63×/1.4 objective (LSM510, Can Zeiss) or by epifluorescence microscope (Olympus 1×71; Japan). hiN cell counts and fluorescence intensities were quantified by taking 10 to 35 images of randomly selected views per well. Subsequently, images were analyzed for cell counts and fluorescent intensity using Image J 1.42q software (National Institute of Health, USA). […]

In a further assay the test system is secreted Aβ40 and Aβ42. The experiment in a line: Aβ40/Aβ42 sandwich ELISA of hiN cell culture media with ibuprofen treatment. Particulars: ibuprofen 250 μM. The procedure: sAPPβ ELISA was performed using BetaMar sAPP Beta ELISA, according to the manufacturer's instruction. Aβ quantification was performed by ELISAs (Cirrito et al., 2003). Media was conditioned for 48 hr prior to harvesting. Samples were analyzed for Aβ40 or Aβ42 using specific sandwich ELISAs. Briefly, Aβ40, and Aβ42 were captured using monoclonal antibodies targeted against amino acids 35-40 (HJ2.0), or 33-42 (HJ7.4) of Aβ, respectively. The antibodies HJ2.0, HJ5.1 and HJ7.4 were used. For Aβ40 and Aβ42 assays, a biotinylated central domain monoclonal antibody (HJ5.1) followed by streptavidin-poly-HRP-40 was used for detection. Assays were developed using Super Slow ELISA TMB and read on a VersaMax ELISA Microplate Reader. Aβ40, and Aβ42 standard curves were generated using purified peptides. The amount of Aβ was normalized to the cell density per well (relative to UND line as indicated in legend), and was expressed as pg/ml.

The subject of a further assay is sodium channel.
The next assay has as its system Na+ channel.
A further assay has as its system GABA receptors. The experiment in a line: GABA puff evoked currents in hiN cells. As to conditions: GABA 1 mM puff, picrotoxin 50 μM.

For `N[C@H](CCCP(=O)(O)O)C(=O)O` [APV, D(−)-2-amino-5-phosphonovaleric acid], the glutamate-mediated postsynaptic currents result in assay [1] was “could be blocked; also recorded: sensitive”. The “spontaneous excitatory postsynaptic currents (sEPSCs) under glutamatergic block” value in [2] was “suppressed; also recorded: drastically reduced”. For the same compound, the “spontaneous postsynaptic currents in glial coculture” value in the assay with glutamatergic receptor is “sensitive; also recorded: abolished”.

Take `C[C@H](NC(=O)Cc1cc(F)cc(F)c1)C(=O)N[C@H](C(=O)OC(C)(C)C)c1ccccc1` [DAPT]: the “production of Aβ in media” value in the assay with γ-secretase was “suppressed”. Also, the “total APP-positive puncta area per cell, UND hiN cells” value in assay [3] is reported as “partially phenocopied; also recorded: significant increase”.

Regarding `NS(=O)(=O)c1cccc2c1c([N+](=O)[O-])cc1nc(O)c(O)nc12` [NBQX, 2,3-dihydroxy-6-nitro-7 sulphamoyl-benzo[f]quinoxaline-2,3-dione], in assay [1], the glutamate-mediated postsynaptic currents result is reported as “could be blocked; also recorded: sensitive”. In addition, in assay [2], the “spontaneous excitatory postsynaptic currents (sEPSCs) under glutamatergic block” value is “suppressed; also recorded: drastically reduced”. Further, the “spontaneous postsynaptic currents in glial coculture” value in the assay with glutamatergic receptor is reported as “sensitive; also recorded: abolished”.

`CC(C)Cc1ccc(C(C)C(=O)O)cc1` (centres unmarked) [ibuprofen]: the “increased Aβ40 and Aβ42 generation in FAD hiN cell cultures” value with secreted Aβ40 and Aβ42 (FAD (Presenilin mutant) hiN cell cultures) is reported as “failed to suppress; also recorded: resistant”. The “elevated levels of secreted Aβ40 and Aβ42 in SAD hiN cell cultures” value in the assay on secreted Aβ40 and Aβ42 (SAD hiN cell cultures) is “suppressed”.

With `NC1=N[C@H](O)[C@H]2[C@H]3O[C@]4(O)O[C@@H]([C@@H](O)[C@@]2(N1)[C@@H]4O)[C@]3(O)CO` [tetrodotoxin], the depolarization-induced action potentials result in the assay with sodium channel is “could be inhibited; also recorded: could be blocked”. Moreover, in the assay with Na+ channel, the “fast inward Na+ currents” value is reported as “sensitive”.

In the case of picrotoxin, the GABA evoked currents result with GABA receptors is “sensitive”. For the same compound, in assay [2] (picrotoxin 50 μM), the “frequency and amplitude of spontaneous excitatory postsynaptic currents (sEPSCs)” value was “increased in frequency and amplitude”.
